Results on one compound are retold here after patent publication US12344599B2, “Prodigiosin analogs and methods of use” (Institute For Cancer Research, priority 2016, dated 2025).

One data set concerns DLD1. In words: CellTiterGlo cell viability assay, DLD1. The data set is classed as cell-based. The following applies: Homo sapiens, DLD-1; DLD1, colorectal cancer, p53 S241F, 72 hours. As to the method: (§1) • 1) Cell lines: HT29, SW480, DLD-1, HCT116, and p53-null HCT116 cells, H1975, MDA-MD-231, U251, FaDu, CAL-27, PANC-1, Aspc-1, and MRC5 were obtained from the ATCC and cultured as recommended. Cells were regularly authenticated by bioluminescence, growth, and morphologic observation. The cells were routinely examined for Mycoplasma and all cell lines underwent STR authentication. • 2) Western blotting: After treatment, protein lysates were collected for Western blot analysis. 15 μg of protein was used for SDS-PAGE. After primary and secondary antibody incubations, the signal was detected by chemiluminescent detection kit, imaged by Syngene (Imgen Technologies). […] The cell viability was assessed by CellTiterGlo bioluminescent cell proliferation assay (Promega), following the manufacturer's protocol. Bioluminescence imaging was measured using the IVIS imager. Percentage of cell viability (mean±SEM) at each dose was calculated against the respective DMSO control. The IC50 values were determined from the sigmoidal dose-response curves using GraphPad Prims4. • 4) Caspase activity assay: Cells were seeded in 96-well plate (1×10^4 cells/well). […] The caspase 3/7 activity was assessed by Caspase-Glo® 3/7 Assay kit (Promega), following the manufacturer's protocol. Bioluminescence imaging was measured using the IVIS imager. […]

A further data set deals with HCT116 p53−/−. In words: CellTiterGlo cell viability assay, HCT116 p53−/−. The following applies: Homo sapiens, HCT-116, colorectal cancer, p53 null, 72 hours. It counts as cell-based. As for the experimental part: as §1
For another data set, the system named is PANC-1. The data set is described as follows: CellTiterGlo cell viability assay, PANC-1. The following applies: Homo sapiens; PANC-1, pancreatic cancer, p53 R273H, 72 hours. It counts as cell-based. As to the method:
as §1
(In ATP-based viability assays light output follows the ATP content of the culture.)

The test system of another data set is U251. In words: CellTiterGlo cell viability assay, U251. It counts as cell-based. The following applies: Homo sapiens, U-251; U251, glioblastoma multiforme, p53 R273H, 72 hours. As to the method: as §1
Another data set concerns H1975. The data set is described as follows: CellTiterGlo cell viability assay, H1975. The data set is classed as cell-based. The following applies: Homo sapiens, NCI-H1975; H1975, NSCLC, p53 R273H, 72 hours. As for the experimental part: as §1
The next data set relates to HT29 cells. The data set is described as follows: Flow cytometry sub-G1 (PI staining) analysis. It counts as cell-based, human. The following applies: for sub-G1 populations: HT29, co-treatment with PG3-Oc and TRAIL; for sub-G1 population: 1 μM PG3-Oc for 48 hours. As for the experimental part: • 1) Cell lines: HT29, SW480, DLD-1, HCT116, and p53-null HCT116 cells, H1975, MDA-MD-231, U251, FaDu, CAL-27, PANC-1, Aspc-1, and MRC5 were obtained from the ATCC and cultured as recommended. Cells were regularly authenticated by bioluminescence, growth, and morphologic observation. The cells were routinely examined for Mycoplasma and all cell lines underwent STR authentication. • 2) Western blotting: After treatment, protein lysates were collected for Western blot analysis. 15 μg of protein was used for SDS-PAGE. After primary and secondary antibody incubations, the signal was detected by chemiluminescent detection kit, imaged by Syngene (Imgen Technologies). Antibodies for Puma, FLIPL/S and p53 (Santa Cruz Biotechnology), cleaved caspase 8, caspase 9, caspase 3, cleavage PARP, eIF2α, p-eIF2α(Ser51), CHOP, ATF4, DR5, FOXO3a, p-FOXO3a(Ser253), NF-κB p65, p-NF-κB p65(Ser536), c-Jun, p-c-Jun(Ser63), JNK, p-JNK(Thr183/Tyr185) (Cell Signaling Technology), Noxa, p21 (Calbiochem), p73 (Bethyl laboratories Inc), Ran (BD Biosciences), […] (Sigma). • 3) Cell viability assay: Cells were seeded in 96-well plate (6×10^3 cells/well). Cells were treated with different concentrations of compounds or dimethyl sulfoxide (DMSO) control for 72 hours. The cell viability was assessed by CellTiterGlo bioluminescent cell proliferation assay (Promega), following the manufacturer's protocol. Bioluminescence imaging was measured using the IVIS imager. Percentage of cell viability (mean±SEM) at each dose was calculated against the respective DMSO control. The IC50 values were determined from the sigmoidal dose-response curves using GraphPad Prims4. • 4) Caspase activity assay: Cells were seeded in 96-well plate (1×10^4 cells/well). Cells were treated with different concentrations of compounds or DMSO control for 24 hours. The caspase 3/7 activity was assessed by Caspase-Glo® 3/7 Assay kit (Promega), following the manufacturer's protocol. Bioluminescence imaging was measured using the IVIS imager. Caspase activity was normalized to cell numbers and compared to those of DMSO treatment as control in each cell line. Data is reported as mean RLU+SEM (n=3). • 5) Colony formation assays: Five hundred cells were seeded per well on 6-well plates and treated with different concentrations of compounds for 24 hours, then, cells were cultured with drug-free complete medium for 2 weeks with fresh medium changed every 7 days. Cells were fixed with 10% formalin and stained with 0.05% crystal violet at the end of 2 weeks period of cell culture. • 6) Flow cytometry assay: • a) Cell Cycle Analysis: Propidium iodide (PI) staining and flow cytometry were used to determine the degree of cellular apoptosis. Cells were seeded at 3×10^5 cells/well in six-well plates. Cells were treated with PG3-Oc for 48 hours. Cells were harvested, fixed by 70% ethanol, and stained by propidium iodide, then flow cytometry was performed as previously described (Smithen et al., Org. Biomol. Chem., 2013, 11, 62-68). The percentage of hypodiploid cells (sub-G1) was used to quantify dead cells in apoptosis assays. • b) Early apoptosis detection: Cells were seeded at 3×10^5 cells/well in six-well plates. Cells were treated with PG3-Oc for 48 hours. […]
(In general: Flow cytometry measures light scatter and fluorescence of single cells or particles in a stream.)

The subject of the next data set is HCT116 p53−/− cells. The data set is described as follows: qRT-PCR of p53 target gene mRNA, HCT116 p53−/−. The data set is classed as cell-based, human. The following applies: 1 μM. As for the experimental part:
as §1
A general note: Quantitative PCR measures a nucleic acid by following its amplification.

The subject of data set [1] is ATF4 and CHOP in HCT116 p53−/− cells. The data set is described as follows: Western blot of ATF4 and CHOP, HCT116 p53−/−. The data set is classed as cell-based, human. As for the experimental part: as §1
In a further data set the test system is panel of CRC cell lines. In words: Colony formation assay (long-term cell proliferation). The following applies: low dose. The data set is classed as cell-based, human. As to the method:
Five hundred cells were seeded per well in 6-well plates and treated with different concentrations of compounds for 24 hours, then, cells were cultured with drug-free complete medium for 2 weeks with fresh medium changed every 7 days. Cells were fixed with 10% formalin and stained with 0.05% crystal violet at the end of 2 weeks period of cell culture (Franken et al., Nat. Protoc., 2006, 1, 2315-9).

A further data set relates to HT29 tumor xenografts. It counts as in vivo, mouse. As for the experimental part:
One million HT29 were implanted subcutaneously in the flanks in each athymic nude mouse (female, 4-6 weeks old). The mice were divided at random into two groups and treated with the vehicle (10% DMSO, 20% Kollipher EL in PBS) and PG3-Oc (5 mg/kg, 3 times/week) by intraperitoneal injection when the tumor masses reached a size of 5 to 6 mm. Subsequently, tumor volumes were measured with a caliper and calculated using V=0.5×Length×Width^2. Twenty three days after treatment, the mice were euthanized and tumors were excised. H & E staining and Immunohistochemistry (IHC) of paraffin-embedded tumor and tissue sections were performed at the Fox Chase Cancer Center Histopathology Facility.
To evaluate the antitumor effects of PG3-Oc in vivo, a human tumor xenograft model was established by subcutaneous injection of human colon cancer cells into nude mice. After the tumor volume reached approximately 50 mm^3, mice were treated by i.p. injection with vehicle or PG3-Oc at 5 mg/kg 3 times weekly for 2 weeks.

Setting [2] is: nude mice, 5 mg/kg i.p. 3 times weekly.

Consider `CCCCCCCCOC(=O)CCc1c(C)[nH]c(/C=C2\N=C(c3ccc[nH]3)C=C2OC)c1C` [PG3-Oc, Octyl (Z)-3-(5-((4′-methoxy-1H,5′H-[2,2′-bipyrrol]-5′-ylidene)methyl)-2,4-dimethyl-1H-pyrrol-3-yl)propanoate], for which the 50% inhibitory concentration (IC50) – broadly, the concentration needed to halve the response being measured – turned out to be 54 nM with DLD1; 41.1 nM in the data set on HCT116 p53−/−; 136 nM in the data set on PANC-1; 100 nM with U251; 190 nM with H1975. The sub-G1 populations in the data set on HT29 cells (siRNA knockdown of DR5) worked out at 29.5%; in the data set with HT29 cells (without DR5 knockdown) it was 72.9%. For the same compound, the sub-G1 population in the data set on HT29 cells (HT29, knockdown of PUMA by siRNA) was 11.1%; with HT29 cells (HT29, siControl), 25.8%. Moreover, the “change of DR5 mRNA” value in the data set with HCT116 p53−/− cells is listed as “no significant change”. Also, the “induction of p21 mRNA” value in the data set with HCT116 p53−/− cells (8 and 19 hours post-treatment) is “Over 3 fold”. Also, the “concentration at which induction of ATF4 and CHOP occurred” value in [1] was 1.25 µM. Further, the “inhibition in long-term cell proliferation” value with panel of CRC cell lines is “Over 90%”. In addition, the “body weight versus vehicle treatment group” value with HT29 tumor xenografts (mouse, in vivo, ip, 5 mg/kg) is “No significant difference”. The “Ki-67 expression in tumors as compared with the vehicle group” value in the data set with HT29 tumor xenografts (setting [2]) is given as “significantly decreased”. Also, the “PUMA in tumors as compared with controls” value in the data set on HT29 tumor xenografts (setting [2]) is listed as “significantly induced”. For the same compound, the “tumor volume as compared with vehicle-treated mice” value in the data set on HT29 tumor xenografts (setting [2]) is recorded as “significantly reduced”.
